Source: patent US20110044969A1, “Antimicrobial Agents for the Treatment of Campylobacter Species in the Crop of a Bird” (NOFIMA MAT AS, priority 2008, published 2011)

System: C. jejuni strain 484, strain 523 and strain 534
Details: pH 6.0 and 6.5; acid 0.1, 0.01, 0.001, 0.0001%; 48 hours at 42° C. microaerophilic; growth by spectrophotometer; all three strains
Experimental: Three C. jejuni strains were compared in vitro for sensitivity for benzoic acid and sorbic acid at two different pH values. These strains were C. jejuni strain 484 (from poultry leg), C. jejuni strain 523 (from poultry faeces), and C. jejuni strain 534 (from poultry faeces). Different combinations of pH (6.0 and 6.5) and concentrations of the acids (0.1, 0.01, 0.001, and 0.0001%) were tested in Mueller-Hinton broth (MH) with supplement for Campylobacter (SR232E; Oxoid Ltd., Basingstoke, UK). The strains were incubated in microaerophilic atmosphere for 48 hours at 42° C., and growth was measured by spectrophotometer.
Three C. jejuni strains were tested for in vitro growth at different combinations of pH (6.0 and 6.5) and concentrations of sorbic- and benzoic acid (0.1, 0.01, 0.001, and 0.0001%).

C/C=C/C=C/C(=O)O [sorbic acid]
in vitro growth reduction of C. jejuni: highest growth reduction
